Reference: PubChem BioAssay (NCI)
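Briefly, cells in 96-well plates were exposed to five compound concentrations for 48 h, and endpoints were estimated by linear interpolation. TGI: concentration producing complete growth inhibition.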

How the values were obtained:
Assay in all cases: growth of human tumour cells (NCI), 48 h
SF-539 CNS = tested on: SF-539 CNS
SNB-78 CNS = tested on: SNB-78 CNS
LOX IMVI melanoma = tested on: LOX IMVI melanoma
HT29 colon = tested on: HT29 colon
HOP-92 NSCLC = tested on: HOP-92 NSCLC
786-0 renal = tested on: 786-0 renal
TK-10 renal = tested on: TK-10 renal
SK-MEL-28 melanoma = tested on: SK-MEL-28 melanoma
OVCAR-4 ovarian = tested on: OVCAR-4 ovarian
M14 melanoma = tested on: M14 melanoma
UACC-257 melanoma = tested on: UACC-257 melanoma
HOP-18 NSCLC = tested on: HOP-18 NSCLC
HOP-62 NSCLC = tested on: HOP-62 NSCLC
NCI-H460 lung = tested on: NCI-H460 lung
SN12C renal = tested on: SN12C renal
OVCAR-5 ovarian = tested on: OVCAR-5 ovarian
RXF 393 renal = tested on: RXF 393 renal
HL-60(TB) leukemia = tested on: HL-60(TB) leukemia
HCT-116 colon = tested on: HCT-116 colon
SK-MEL-5 melanoma = tested on: SK-MEL-5 melanoma
SNB-75 CNS = tested on: SNB-75 CNS
UO-31 renal = tested on: UO-31 renal
KM20L2 colon = tested on: KM20L2 colon
M19-MEL melanoma = tested on: M19-MEL melanoma
KM12 colon = tested on: KM12 colon
NCI-H522 lung = tested on: NCI-H522 lung
DMS 114 small cell lung = tested on: DMS 114 small cell lung
DLD-1 colon = tested on: DLD-1 colon
NCI-H23 lung = tested on: NCI-H23 lung
SF-268 CNS = tested on: SF-268 CNS
HCC-2998 colon = tested on: HCC-2998 colon
U251 CNS = tested on: U251 CNS
LXFL 529 NSCLC = tested on: LXFL 529 NSCLC
CAKI-1 renal = tested on: CAKI-1 renal
SK-MEL-2 melanoma = tested on: SK-MEL-2 melanoma
EKVX NSCLC = tested on: EKVX NSCLC
A549 NSCLC = tested on: A549 NSCLC
SW-620 colon = tested on: SW-620 colon
OVCAR-8 ovarian = tested on: OVCAR-8 ovarian
NCI-H226 lung = tested on: NCI-H226 lung
SNB-19 CNS = tested on: SNB-19 CNS
SF-295 CNS = tested on: SF-295 CNS
OVCAR-3 ovarian = tested on: OVCAR-3 ovarian
SR leukemia = tested on: SR leukemia
UACC-62 melanoma = tested on: UACC-62 melanoma
MOLT-4 leukemia = tested on: MOLT-4 leukemia
K-562 leukemia = tested on: K-562 leukemia
HCT-15 colon = tested on: HCT-15 colon
CCRF-CEM leukemia = tested on: CCRF-CEM leukemia
IGROV1 ovarian = tested on: IGROV1 ovarian
MALME-3M melanoma = tested on: MALME-3M melanoma
COLO 205 colon = tested on: COLO 205 colon
ACHN renal = tested on: ACHN renal
A498 renal = tested on: A498 renal
RPMI-8226 leukemia = tested on: RPMI-8226 leukemia

SMILES: CC(C)N(O)C(=N)c1ccccc1
- TGI (SF-539 CNS): > 100 µM
- TGI (SNB-78 CNS): > 100 µM
- TGI (LOX IMVI melanoma): > 100 µM
- TGI (HT29 colon): > 100 µM
- TGI (HOP-92 NSCLC): > 100 µM
- TGI (786-0 renal): > 100 µM
- TGI (TK-10 renal): > 100 µM
- TGI (SK-MEL-28 melanoma): > 100 µM
- TGI (OVCAR-4 ovarian): > 100 µM
- TGI (M14 melanoma): > 100 µM
- TGI (UACC-257 melanoma): > 100 µM
- TGI (HOP-18 NSCLC): 0.849 µM
- TGI (HOP-62 NSCLC): > 100 µM
- TGI (NCI-H460 lung): > 100 µM
- TGI (SN12C renal): > 100 µM
- TGI (OVCAR-5 ovarian): > 100 µM
- TGI (RXF 393 renal): > 100 µM
- TGI (HL-60(TB) leukemia): > 100 µM
- TGI (HCT-116 colon): > 100 µM
- TGI (SK-MEL-5 melanoma): > 100 µM
- TGI (SNB-75 CNS): > 100 µM
- TGI (UO-31 renal): > 100 µM
- TGI (KM20L2 colon): > 100 µM
- TGI (M19-MEL melanoma): > 100 µM
- TGI (KM12 colon): > 100 µM
- TGI (NCI-H522 lung): > 100 µM
- TGI (DMS 114 small cell lung): > 100 µM
- TGI (DLD-1 colon): > 100 µM
- TGI (NCI-H23 lung): > 100 µM
- TGI (SF-268 CNS): > 100 µM
- TGI (HCC-2998 colon): > 100 µM
- TGI (U251 CNS): > 100 µM
- TGI (LXFL 529 NSCLC): > 100 µM
- TGI (CAKI-1 renal): > 100 µM
- TGI (SK-MEL-2 melanoma): > 100 µM
- TGI (EKVX NSCLC): > 100 µM
- TGI (A549 NSCLC): > 100 µM
- TGI (SW-620 colon): > 100 µM
- TGI (OVCAR-8 ovarian): > 100 µM
- TGI (NCI-H226 lung): > 100 µM
- TGI (SNB-19 CNS): > 100 µM
- TGI (SF-295 CNS): > 100 µM

SMILES: N/N=C1\C(=O)N(Cc2ccccc2)C(=O)C1C(=O)NCc1ccccc1 (stereo not drawn)
- TGI (SF-539 CNS): > 100 µM
- TGI (SNB-78 CNS): > 100 µM
- TGI (OVCAR-3 ovarian): > 100 µM
- TGI (SR leukemia): > 100 µM
- TGI (HT29 colon): > 100 µM
- TGI (HOP-92 NSCLC): > 100 µM
- TGI (786-0 renal): > 100 µM
- TGI (TK-10 renal): > 100 µM
- TGI (SK-MEL-28 melanoma): > 100 µM
- TGI (OVCAR-4 ovarian): > 100 µM
- TGI (UACC-62 melanoma): > 100 µM
- TGI (M14 melanoma): > 100 µM
- TGI (UACC-257 melanoma): > 100 µM
- TGI (HOP-18 NSCLC): > 100 µM
- TGI (HOP-62 NSCLC): > 100 µM
- TGI (NCI-H460 lung): > 100 µM
- TGI (SN12C renal): > 100 µM
- TGI (MOLT-4 leukemia): > 100 µM
- TGI (OVCAR-5 ovarian): > 100 µM
- TGI (RXF 393 renal): > 100 µM
- TGI (HL-60(TB) leukemia): > 100 µM
- TGI (HCT-116 colon): > 100 µM
- TGI (SK-MEL-5 melanoma): > 100 µM
- TGI (UO-31 renal): > 100 µM
- TGI (KM20L2 colon): > 100 µM
- TGI (M19-MEL melanoma): > 100 µM
- TGI (KM12 colon): > 100 µM
- TGI (K-562 leukemia): > 100 µM
- TGI (HCT-15 colon): > 100 µM
- TGI (NCI-H522 lung): > 100 µM
- TGI (DMS 114 small cell lung): > 100 µM
- TGI (DLD-1 colon): > 100 µM
- TGI (NCI-H23 lung): > 100 µM
- TGI (CCRF-CEM leukemia): > 100 µM
- TGI (SF-268 CNS): > 100 µM
- TGI (HCC-2998 colon): > 100 µM
- TGI (U251 CNS): > 100 µM
- TGI (LXFL 529 NSCLC): > 100 µM
- TGI (IGROV1 ovarian): > 100 µM
- TGI (MALME-3M melanoma): > 100 µM
- TGI (SK-MEL-2 melanoma): > 100 µM
- TGI (EKVX NSCLC): > 100 µM
- TGI (A549 NSCLC): > 100 µM
- TGI (COLO 205 colon): > 100 µM
- TGI (ACHN renal): > 100 µM
- TGI (A498 renal): > 100 µM
- TGI (SW-620 colon): > 100 µM
- TGI (OVCAR-8 ovarian): > 100 µM
- TGI (RPMI-8226 leukemia): > 100 µM
- TGI (SNB-19 CNS): > 100 µM
- TGI (SF-295 CNS): > 100 µM
